Reference: ChEMBL document CHEMBL3217749, “Design and synthesis of novel pyranone-based insulin sensitizers exhibiting in vivo hepatoprotective activity” (2013)
The source made the active and inactive calls. The rule behind the calls is not given here.

How the values were obtained:
Mus musculus [1] = test: Hepatoprotective activity against thioacetamide-induced liver toxicity in Swiss albino mouse assessed as protection in serum total bilirubin activity at 20 mg/kg administered for 7 days started 1 day after thioacetamide challenge measured on day 8; assay type: functional
Mus musculus [2] = test: Hepatoprotective activity against thioacetamide-induced liver toxicity in Swiss albino mouse assessed as protection in serum AST activity at 20 mg/kg administered for 7 days started 1 day after thioacetamide challenge measured on day 8; assay type: functional
Mus musculus [3] = test: Hepatoprotective activity against thioacetamide-induced liver toxicity in Swiss albino mouse assessed as protection against histological damage at 20 mg/kg administered for 7 days started 1 day after thioacetamide challenge measured on day 8 by hematoxylin-eosin staining; assay type: functional, organism-based; design: dose 20 mg/kg
3T3-L1 [4] = test: Induction of adipogenesis in mouse 3T3L1 cells assessed as lipid accumulation at 10 uM on day 8 by oil Red O staining; assay type: functional, cell-based
Mus musculus [5] = test: Hepatoprotective activity against thioacetamide-induced liver toxicity in Swiss albino mouse assessed as protection in serum ALP activity at 20 mg/kg administered for 7 days started 1 day after thioacetamide challenge measured on day 8; assay type: functional
[6] = Upregulation of FAS protein expression in differentiated mouse 3T3L1 cells after 7 days by western blot analysis; assay type: functional, cell-based; conditions: 3T3-L1
Mus musculus [7] = test: Hepatoprotective activity against thioacetamide-induced liver toxicity in Swiss albino mouse assessed as protection in serum ALT activity at 20 mg/kg administered for 7 days started 1 day after thioacetamide challenge measured on day 8; assay type: functional
[8] = Upregulation of aP2 protein expression in differentiated mouse 3T3L1 cells after 7 days by western blot analysis; assay type: functional, cell-based; conditions: 3T3-L1
3T3-L1 [9] = test: Inhibition of chronic insulin-stimulated insulin resistance in differentiated mouse 3T3L1 cells assessed as 2-deoxy-D-[3H]-glucose uptake after 24 hrs by scintillation counting analysis; assay type: functional, cell-based
3T3-L1 [10] = test: Induction of insulin-stimulated 2-deoxy-D-[3H]-glucose uptake in differentiated mouse 3T3L1 cells at 10 uM after 24 hrs by scintillation counting analysis; assay type: functional, cell-based
Mus musculus [11] = test: Hepatoprotective activity against thioacetamide-induced liver toxicity in Swiss albino mouse assessed as protection in serum AST activity at 20 mg/kg, po administered for 7 days started 1 day after thioacetamide challenge measured on day 8; assay type: functional, organism-based; design: dose 20 mg/kg
Mus musculus [12] = test: Hepatoprotective activity against thioacetamide-induced liver toxicity in Swiss albino mouse assessed as protection in serum ALT activity at 20 mg/kg, po administered for 7 days started 1 day after thioacetamide challenge measured on day 8; assay type: functional, organism-based; design: dose 20 mg/kg
Mus musculus [13] = test: Hepatoprotective activity against thioacetamide-induced liver toxicity in Swiss albino mouse assessed as protection against histological damage at 20 mg/kg, po administered for 7 days started 1 day after thioacetamide challenge measured on day 8 by hematoxylin-eosin staining; assay type: functional, organism-based; design: dose 20 mg/kg
Mus musculus [14] = test: Hepatoprotective activity against thioacetamide-induced liver toxicity in Swiss albino mouse assessed as protection in serum total bilirubin activity at 20 mg/kg, po administered for 7 days started 1 day after thioacetamide challenge measured on day 8; assay type: functional, organism-based; design: dose 20 mg/kg
Mus musculus [15] = test: Hepatoprotective activity against thioacetamide-induced liver toxicity in Swiss albino mouse assessed as protection in serum ALP activity at 20 mg/kg, po administered for 7 days started 1 day after thioacetamide challenge measured on day 8; assay type: functional, organism-based; design: dose 20 mg/kg

Compound | Activity (Mus musculus [1]) [%] | Activity (Mus musculus [2]) [%] | Activity (Mus musculus [3]) | Activity (3T3-L1 [4]) | Activity (Mus musculus [5]) [%] | Activity [6] | Activity (Mus musculus [7]) [%] | Activity [8] | Inhibition activity (active/not active) (3T3-L1 [9]) | Activity (3T3-L1 [10]) | Activity (Mus musculus [11]) [%] | Activity (Mus musculus [12]) [%] | Activity (Mus musculus [13]) | Activity (Mus musculus [14]) [%] | Activity (Mus musculus [15]) [%]
COc1ccc(-c2cc(N(C)CCN3C(=O)SC(Cc4cccc(O)c4)C3=O)c(C#N)c(=O)o2)cc1 (centres undefined) | 100 | 75 | Active | Active | 100 | Active | 89 | Active | inactive | Active | – | – | – | – | –
CN(CCOc1ccc(CC2SC(=O)NC2=O)cc1)c1ccccn1 (centres undefined) | – | – | – | – | – | Active | – | Active | Active | Active | – | – | – | – | –
COc1ccc(-c2cc(N(C)CCOC(=O)Cc3ccc(O)cc3)c(C#N)c(=O)o2)cc1 | 100 | 60 | Active | Active | 100 | Active | 92 | Active | inactive | Active | – | – | – | – | –
SILYMARIN | – | – | – | – | – | – | – | – | – | – | 95 | 93 | Active | 100 | 100
CN(CCBr)c1cc(-c2ccc(Cl)cc2)oc(=O)c1C#N | 100 | 87 | Active | Active | 100 | Active | 100 | inactive | Active | Active | – | – | – | – | –
